From patent publication US9320276B2, “N-hetarylmethyl pyrazolylcarboxamides” (BAYER INTELLECTUAL PROPERTY GMBH, priority 2010, dated 2016)

How the values were obtained:
[1] = logP by HPLC on reversed-phase column (EEC Directive 79/831 Annex V.A8); assay type: physicochemical; details: HPLC on reversed-phase column (C 18), 40° C., 0.1% aqueous formic acid and acetonitrile, linear gradient 10% to 90% acetonitrile
Summary of the method: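 Reversed-phase C18 HPLC at 40° C with 0.1% aqueous formic acid/acetonitrile, linear gradient 10% to 90% acetonitrile. LogP obtained from retention time by linear interpolation between successive unbranched alkan-2-ones (3 to 16 carbons) of known logP. Lambda-max taken from UV spectra at 200-400 nm at chromatographic peak maxima.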

Sphaerotheca fuliginea = assay: in vivo preventive test on Sphaerotheca fuliginea (cucumber); details: 500 ppm of active ingredient, evaluated 7 days after inoculation
Method: Solvent: 49 parts by weight of N,N-dimethylformamide Emulsifier: 1 part by weight of Alkylarylpolyglycolether To produce a suitable preparation of active compound, 1 part by weight of active compound is mixed with the stated amounts of solvent and emulsifier, and the concentrate is diluted with water to the desired concentration. To test for preventive activity, young plants are sprayed with the preparation of active compound at the stated rate of application. One day after this treatment, the plants are inoculated with an aqueous spore suspension of Sphaerotheca fuliginea. Then the plants are placed in a greenhouse at approximately 23° C. and a relative atmospheric humidity of approximately 70%. The test is evaluated 7 days after the inoculation. 0% means an efficacy which corresponds to that of the untreated control, while an efficacy of 100% means that no disease is observed.

Alternaria solani = assay: in vivo preventive test on Alternaria solani (tomato); details: 500 ppm of active ingredient, evaluated 7 days after inoculation
Method: Solvent: 49 parts by weight of N,N-dimethylformamide Emulsifier: 1 part by weight of Alkylarylpolyglycolether To produce a suitable preparation of active compound, 1 part by weight of active compound is mixed with the stated amounts of solvent and emulsifier, and the concentrate is diluted with water to the desired concentration. To test for preventive activity, young plants are sprayed with the preparation of active compound at the stated rate of application. One day after this treatment, the plants are inoculated with an aqueous spore suspension of Alternaria solani. The plants remain for one day in an incubation cabinet at approximately 22° C. and a relative atmospheric humidity of 100%. Then the plants are placed in an incubation cabinet at approximately 20° C. and a relative atmospheric humidity of 96%. The test is evaluated 7 days after the inoculation. 0% means an efficacy which corresponds to that of the untreated control while an efficacy of 100% means that no disease is observed.

Pyrenophora teres = assay: in vivo preventive test on Pyrenophora teres (barley); details: 500 ppm of active ingredient, evaluated 7-9 days after inoculation
Summary of the method: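 Young barley plants sprayed with compound in DMF/alkylaryl polyglycol ether emulsion; inoculated with P. teres spores one day later. 48 h at 22 °C, 100% humidity, then greenhouse ~20 °C, ~80% humidity; efficacy scored 7-9 days post-inoculation, 0% = untreated, 100% = no disease.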

Venturia inaequalis = assay: in vivo preventive test on Venturia inaequalis (apple scab); details: 100 ppm of active ingredient, evaluated 10 days after inoculation
Method: Solvent: 24.5 parts by weight of acetone • 24.5 parts by weight of N,N-dimethylacetamide Emulsifier: 1 part by weight of alkylaryl polyglycol ether To produce a suitable preparation of active compound, 1 part by weight of active compound is mixed with the stated amounts of solvent and emulsifier, and the concentrate is diluted with water to the desired concentration. To test for preventive activity, young plants are sprayed with the preparation of active compound at the stated rate of application. After the spray coating has dried on, the plants are inoculated with an aqueous conidia suspension of the causal agent of apple scab (Venturia inaequalis) and then remain for 1 day in an incubation cabinet at approximately 20° C. and a relative atmospheric humidity of 100%. The plants are then placed in a greenhouse at approximately 21° C. and a relative atmospheric humidity of approximately 90%. The test is evaluated 10 days after the inoculation. 0% means an efficacy which corresponds to that of the untreated control, while an efficacy of 100% means that no disease is observed.

Septoria tritici = assay: in vivo preventive test on Septoria tritici (wheat); details: 500 ppm of active ingredient, evaluated 21 days after inoculation
Method: (§1) Solvent: 49 parts by weight of N,N-dimethylacetamide Emulsifier: 1 part by weight of alkylaryl polyglycol ether To produce a suitable preparation of active compound, 1 part by weight of active compound or active compound combination is mixed with the stated amounts of solvent and emulsifier, and the concentrate is diluted with water to the desired concentration. To test for preventive activity, young plants are sprayed with the preparation of active compound or active compound combination at the stated rate of application. After the spray coating has been dried, the plants are sprayed with a spore suspension of Septoria tritici. The plants remain for 48 hours in an incubation cabinet at approximately 20° C. and a relative atmospheric humidity of approximately 100% and afterwards for 60 hours at approximately 15° C. in a translucent incubation cabinet at a relative atmospheric humidity of approximately 100%. The plants are placed in the greenhouse at a temperature of approximately 15° C. and a relative atmospheric humidity of approximately 80%. The test is evaluated 21 days after the inoculation. 0% means an efficacy which corresponds to that of the untreated control, while an efficacy of 100% means that no disease is observed.

[2] = test system: Blumeria graminis fsp. hordei; assay: in vivo preventive test on Blumeria graminis (barley); details: 500 ppm of active ingredient, evaluated 7 days after inoculation
Method: Solvent: 49 parts by weight of N,N-dimethylacetamide Emulsifier: 1 part by weight of alkylaryl polyglycol ether To produce a suitable preparation of active compound, 1 part by weight of active compound or active compound combination is mixed with the stated amounts of solvent and emulsifier, and the concentrate is diluted with water to the desired concentration. To test for preventive activity, young plants are sprayed with the preparation of active compound or active compound combination at the stated rate of application. After the spray coating has been dried, the plants are dusted with spores of Blumeria graminis fsp. hordei. The plants are placed in the greenhouse at a temperature of approximately 18° C. and a relative atmospheric humidity of approximately 80% to promote the development of mildew pustules. The test is evaluated 7 days after the inoculation. 0% means an efficacy which corresponds to that of the untreated control, while an efficacy of 100% means that no disease is observed.

[3] = test system: Fusarium nivale (var. majus); assay: in vivo curative test on Fusarium nivale (wheat); details: 500 ppm of active ingredient, evaluated 5 days after inoculation
Method: Solvent: 49 parts by weight of N,N-dimethylacetamide Emulsifier: 1 part by weight of alkylaryl polyglycol ether To produce a suitable preparation of active compound, 1 part by weight of active compound or active compound combination is mixed with the stated amounts of solvent and emulsifier, and the concentrate is diluted with water to the desired concentration. To test for curative activity, young plants are slightly injured by using a sandblast and afterwards they are sprayed with a conidia suspension of Fusarium nivale (var. majus) and placed for 24 hours in a greenhouse under a translucent incubation cabinet at a temperature of approximately 10° C. and a relative atmospheric humidity of approximately 100% and are subsequently sprayed with the preparation of active compound at the stated rate of application. After the spray coating has been dried, the plants remain in the greenhouse under translucent incubation cloches at a temperature of approximately 10° C. and a relative atmospheric humidity of approximately 100%. The test is evaluated 5 days after the inoculation. 0% means an efficacy which corresponds to that of the untreated control, while an efficacy of 100% means that no disease is observed.

Leptosphaeria nodorum = assay: in vivo preventive test on Leptosphaeria nodorum (wheat); details: 500 ppm of active ingredient, evaluated 7-9 days after inoculation
Method: Solvent: 49 parts by weight of N,N-dimethylacetamide Emulsifier: 1 part by weight of alkylaryl polyglycol ether To produce a suitable preparation of active compound, 1 part by weight of active compound is mixed with the stated amounts of solvent and emulsifier, and the concentrate is diluted with water to the desired concentration. To test for preventive activity, young plants are sprayed with a preparation of active compound at the stated rate of application. One day after this treatment, the plants are inoculated with an aqueous spore suspension of Leptosphaeria nodorum. The plants remain for 48 hours in an incubation cabinet at 22° C. and a relative atmospheric humidity of 100%. Then the plants are placed in a greenhouse at a temperature of approximately 22° C. and a relative atmospheric humidity of approximately 90%. The test is evaluated 7-9 days after the inoculation. 0% means an efficacy which corresponds to that of the untreated control, while an efficacy of 100% means that no disease is observed.

Puccinia triticina = assay: in vivo protective test on Puccinia triticina (wheat); details: 500 ppm of active ingredient, preventive, evaluated 8 days after inoculation
Method: as §1, with “Puccinia triticina.” for “Septoria tritici.”, “approximately” for “approximately 100% and afterwards for 60 hours at approximately 15° C. in a translucent incubation cabinet at a relative atmospheric humidity of approximately”, “20°” for “15°”, “8” for “21”

Compound	logP [1]	Efficacy (Sphaerotheca fuliginea)	Efficacy (Alternaria solani)	Efficacy (Pyrenophora teres)	Efficacy (Venturia inaequalis)	Efficacy (Septoria tritici)	Efficacy [2]	Efficacy [3]	Efficacy (Leptosphaeria nodorum)	Efficacy (Puccinia triticina)
CC(c1csc2ccccc12)N(C(=O)c1c(C(F)F)nn(C)c1F)C1CC1 (racemic) [Example 85]	3.60	94%	80%	100%	100%	90%	100%	100%	100%	
Cc1ccsc1CN(C(=O)c1c(C(F)F)nn(C)c1F)C1CC1 [Example 40]	2.88	90%	95%	100%		100%	100%	92%		71%
Cn1nc(C(F)F)c(C(=O)N(Cc2csc3ccccc23)C2CC2)c1F [Example 90]	3.27		95%	100%		100%	100%	100%	100%	88%
Cn1nc(C(F)F)c(C(=O)N(Cc2cccc3ccsc23)C2CC2)c1F [Example 93]	3.19		100%	100%		100%	94%	71%		100%
Cc1c(CN(C(=O)c2c(C(F)F)nn(C)c2F)C2CC2)sc2ccccc12 [Example 122]	3.64		95%	100%		100%		93%	100%	100%
Cc1nn(-c2ccccc2)nc1CN(C(=S)c1c(C(F)F)nn(C)c1F)C1CC1 [Example 132]	4.04	100%	90%	100%	98%					
Cn1nc(C(F)F)c(C(=O)N(Cc2cc3ccccc3n2-c2ccccc2)C2CC2)c1F [Example 155]	3.96		95%	100%		100%	70%	100%	80%	75%
